Several values for one entry are separate records, joined by “and”; a condition that tells them apart may be missing. Identical values can stand only once.
Key:
[1] = system: host versus graft reaction in rats; assay: Inhibitory effect on host versus graft (HvG) reaction in rats (popliteal lymph node weight); type: in vivo, rat; settings: administered daily for 4 days after the injection with cells intravenously or orally, difference of right and left popliteal lymph node weights
Method: (§1) The spleen is removed from male WKAH rats at ages of 4 to 5 weeks old and is used to obtain a single cell suspension of spleen cells using RPMI 1640 medium (containing kanamycin sulfate at […], penicillin G potassium at 100 unit/ml, N-2-hydroxyethylpiperazine-N-2-ethane sulfate at 10 mM, 0.1% sodium bicarbonate, and L-glutamine at 2 mM). After the treatment of lysing of red blood cells, the cells are washed at three times and are adjusted at 5×10^7 cells/ml with physiological saline. By injection into right hind foot pad of 100 ul of spleen cell suspension, the host versus graft reaction (HvG reaction) are induced. After 4 days of the injection with cells, both of right and left popliteal lymph nodes are removed and the weight of them are measured. The test compounds are examined by difference of the lymph node weights between right and left as a indicator of HvG reaction. In addition, after 4 days of the injection with cells, blood is obtained from tail vein of the rats and the number of peripheral white blood cells are measured using automatic hemocytometer for animal (MEK-5158, Nihonkouden Co. Ltd.). Test compounds are administered daily for 4 days after the injection with cells intravenously or orally.
(§2) The value in the table represents minimum effective dose (mg/kg).

[2] = system: peripheral white blood cells; assay: Reduction of peripheral white blood cells in rats of the HvG reaction test; type: in vivo, rat; settings: for Reduction of peripheral white blood cells, minimum effective dose: administered daily for 4 days intravenously or orally, blood from tail vein 4 days after the injection with cells; for reduction of peripheral white blood cell number relative to immunosuppressive dose (assessment in words): conclusion drawn from Table 1 (HvG test)
Method: as §1, §2

Compound	melting point	Inhibitory effect on HvG reaction, minimum effective dose [1] [mg/kg]	Reduction of peripheral white blood cells, minimum effective dose [2] [mg/kg]	reduction of peripheral white blood cell number relative to immunosuppressive dose (assessment in words) [2]
CCCCCCCOc1ccc(CCC(CO)(CCO)NC(=O)c2cc([N+](=O)[O-])cc([N+](=O)[O-])c2)cc1 (stereo not drawn) [Working Example 115]	78 to 79 °C			
CCCCCCCOc1ccc(CCC(N)(CO)C(C)C)cc1.CCCCCCCOc1ccc(CCC(N)(CO)C(C)C)cc1.Cl.Cl.O (stereo not drawn) [Compound of experiment 60, 2-Amino-2-isopropyl-4-(4-heptyloxyphenyl)butanol Hydrochloride 1/2 Hydrate]		1	3	weakness of reduction of peripheral white blood cell number
CCCCCCCCCCCCc1ccc(CCC(CCOC(C)=O)(COC(C)=O)NC(C)=O)cc1 (stereo not drawn) [Working Example 16, 3-Acetamido-3-acetoxymethyl-5-(4-dodecylphenyl)pentyl Acetate]	75 to 77 °C			
CCCCCCCOc1ccc(CCC(C)(N)CO)cc1.Cl (stereo not drawn) [Compound of experiment 1, 2-Amino-4-(4-heptyloxyphenyl)-2-methylbutanol Hydrochloride]		0.03	0.03	weakness of reduction of peripheral white blood cell number
CCCCCCCC(=O)c1ccc(CCC(CCOC(C)=O)(CCOC(C)=O)NC(C)=O)cc1 [Working Example 100, 3-Acetamido-5-acetoxy-3-[2-(4-octanoylphenyl)ethyl]pentyl Acetate]	83 to 86 °C			
CCCCCCCCc1ccc(CCC(N)(CO)CO)cc1.Cl [FTY720, 2-amino-2-[2-(4-octylphenyl)ethyl]propane-1,3-diol hydrochloride, reference compound]		0.1	0.03	
CCCCCCCOc1ccc(CCC(CO)(CCC)NC(=O)c2cc([N+](=O)[O-])cc([N+](=O)[O-])c2)cc1 (stereo not drawn) [Working Example 32]	90 to 91 °C			
CCCCCCCOc1ccc(CCC(N)(CC)CO)cc1.Cl (stereo not drawn) [Compound of experiment 27, 2-Amino-2-ethyl-4-(4-heptyloxyphenyl)butanol Hydrochloride]	108 to 110 °C	0.03	0.03	weakness of reduction of peripheral white blood cell number
CCCCCCCc1ccc(CCCC(N)(CO)CCO)cc1 (stereo not drawn) [Working Example 4, 2-Amino-2-[3-(4-heptylphenyl)propyl]butane-1,4-diol]	68 to 71 °C			
CCCCCCCOc1ccc(CCC(C)(CO)NC(=O)c2cc([N+](=O)[O-])cc([N+](=O)[O-])c2)cc1 (racemic)	150 to 151 °C			
CCCCCCCOc1ccc(CC[C@@](N)(CO)CCC)cc1.Cl [Compound of experiment 31, (R)-2-amino-2-[2-(4-heptyloxyphenyl)ethyl]pentanol Hydrochloride]		<0.3	3	weakness of reduction of peripheral white blood cell number
CCCCCCCOc1ccc(CCC(CO)(CCO)NC(=O)c2cc([N+](=O)[O-])cc([N+](=O)[O-])c2)cc1 (stereo not drawn) [Working Example 116]	77 to 79 °C			
CCCCCCCOc1ccc(CCC(C)(N)CO)cc1OC (stereo not drawn) [Compound of experiment 66, 2-Amino-4-(4-heptyloxy-3-methoxyphenyl)-2-methylbutanol 1/10 Hydrate]		3	3	weakness of reduction of peripheral white blood cell number
CCCCCCCCCc1ccc(CCCC(N)(CO)CCO)cc1 (stereo not drawn) [Compound of experiment 3, 2-Amino-2-[3-(4-nonylphenyl)propyl]butane-1,4-diol]	71 to 73 °C	0.03	0.03	weakness of reduction of peripheral white blood cell number
CCCCCCCOc1ccc(CCC(CO)(CCC)NC(=O)c2cc([N+](=O)[O-])cc([N+](=O)[O-])c2)cc1 (racemic) [Working Example 29]	114 to 115 °C and 115 to 116 °C			

From patent US6372800B1, “Benzene compound and pharmaceutical use thereof” (Mitsubishi Pharma Corporation, priority 1994, dated 2002)
